US8901118B2, “Compounds and methods for kinase modulation, and indications therefor” (Plexxikon Inc., priority 2010, dated 2014)

How the values were obtained:
[1] = system: Osteoclast precursor cells; assay: Osteoclast differentiation assay (acid phosphatase readout); format: cell-based
Experimental: Further, an osteoclast differentiation assay is used to assess the efficacy of Fms inhibitors for treating bone disease such as osteoarthritis. On day 0, Osteoclast Medium BulletKit (Lonza catalog #PT-8001, containing Media, FBS, L-Glutamine, PenStrep, RANKL, and M-CSF) media is thawed and the FBS, L-glutamine and PenStrep from the kit is added to 100 mL of Osteoclast Precursor Basal medium to provide the Osteoclast Precursor Growth Medium (OPGM). This is warmed to 37° C. Osteoclast precursor cells (Lonza catalog #2T-110) frozen in cryovial are warmed to 37° C. and transferred to a 50 mL conical tube. The cryovial is rinsed with OPGM and added dropwise to the conical tube of cells with swirling, then the volume is adjusted to 20-30 mL with addition of OPGM. The cells are centrifuged at 200×g for 15 minutes at room temperature and all but approximately 3 mL of supernatant is removed to a new conical tube. The cells are suspended in the remaining supernatant and the volume is adjusted to 10-15 mL with OPGM added dropwise with swirling. The cells are centrifuged at 200×g for 15 minutes at room temperature and all but approximately 1 mL of supernatant is removed. The cells are resuspended in the remaining supernatant, counted, and the volume adjusted with an appropriate amount of OPGM to provide approximately 1×10^5 cells/mL. A 0.1 mL aliquot of cells is added to each well of a 96-well plate. Compound to be tested is prepared in DMSO for plating at a high concentration of 2.5 mM, with 8 point 1:3 serial dilutions. A 1 μL aliquot of each compound dilution is added to a 96 well v-bottom polypropylene plate and 0.124 mL of OPGM is added to the compound. Then 50 μL at of the compound in OPGM is added to the osteoclast precursor cells in 96-well plate (providing highest test concentration of 5 μM). RANKL (2 μg) from the BulletKit is reconstituted in 1 mL of OPGM, then vortexed and centrifuged briefly. A 792 μL at aliquot of RANKL is added to 6 mL of OPGM and 50 μL at is added to low control wells. Then 76.6 μL M-CSF (10 μg/mL) from the BulletKit is added to the remaining 5.8 mL of OPGM/RANKL solution (4×RANKL/M-CSF/OPGM). A 50 μL at aliquot of this is added to the remaining wells, and the remainder is stored at 4° C. for later use. The plate is incubated at 37° C. for 6 days, then the remaining OPGM/RANKL/M-CSF solution is warmed to 37° C. The remaining approximately 198 μL is combined with 6 mL of OPGM. The media is aspirated from the osteoclast wells and 100 μL of RANKL/OPGM is added to the low controls. The remaining RANKL/OPGM is combined with the approximately 18.5 μL of remaining M-CSF. The remaining 4×RANKL/M-CSF/OPGM from day 0 is diluted to 1× and combined with the freshly prepared solution. A 0.1 mL aliquot of this is added to each osteoclast well and incubated for 37° C. for 1 day. The Acid Phosphatase kit (Cayman Chemical catalog #10008051) is warmed to room temperature. The assay buffer is diluted 5 mL with 45 mL of water. For each plate, two substrate tablets are dissolved in 4.5 mL of the assay buffer, mixing by vortex to break up the tablet. Stop solution is diluted 12 mL with 36 mL of water. In a tissue culture hood, 20 μL of each osteoclast well supernatant is transferred to a 96 well plate. A 30 μL aliquot of the substrate solution is added to each well and incubated at 37° C. for 20 minutes, then added 100 μL stop solution to each well. The absorbance of each well is read at 405 nm on Safire plate reader. The absorbance reading is plotted vs. concentration to provide the IC50 for each compound.

[2] = Relative solubility by turbidity in aqueous buffers (pH 1.5, 4.5, 6.8, 7.4); format: physicochemical; conditions: for turbidity threshold (L, M, H) 1.4: pH 1.5 (SGF); for turbidity threshold (L, M, H) 4.5: pH 4.5 (SIF); for turbidity threshold (L, M, H) 6.8: pH 6.8 (SIF); for turbidity threshold (L, M, H) 7.4: pH 7.4 (HEPES)
Summary of the method: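 Reported value: concentration at which optical density at 490, 535 and 650 nm passes 0.01, taken as the mean of the three wavelengths. Buffers were 0.5M NaCl pH 1.5, 0.05M NaH2PO4 pH 4.5 or 6.8, and 10 mM HEPES/150 mM NaCl pH 7.4, each receiving serial 1:1 DMSO dilutions of a 25 mM stock.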

SMILES	IC50 [1] [µM]	turbidity threshold (L, M, H) 1.4 [2]	turbidity threshold (L, M, H) 4.5 [2]	turbidity threshold (L, M, H) 6.8 [2]	turbidity threshold (L, M, H) 7.4 [2]
CCc1ccc(Nc2ccc(Cc3c[nH]c4ncnc(OCCOC)c34)c(F)n2)cn1 [Compound P-4016, (6-Ethyl-pyridin-3-yl)-{6-fluoro-5-[4-(2-methoxy-ethoxy)-7H-pyrrolo[2,3-d]pyrimidin-5-ylmethyl]-pyridin-2-yl}-amine]	< 0.1	M (moderate solubility if the threshold concentration is 31.3 μM to 250 μM)	H (high solubility if the threshold concentration is >250 μm)	M (moderate solubility if the threshold concentration is 31.3 μM to 250 μM)	M (moderate solubility if the threshold concentration is 31.3 μM to 250 μM)
CCn1cc(Nc2ccc(Cc3c[nH]c4ncnc(OCCOC)c34)c(F)n2)cn1 [Compound P-4014, (1-Ethyl-1H-pyrazol-4-yl)-{6-fluoro-5-[4-(2-methoxy-ethoxy)-7H-pyrrolo[2,3-d]pyrimidin-5-ylmethyl]-pyridin-2-yl}-amine]	< 0.1	M (moderate solubility if the threshold concentration is 31.3 μM to 250 μM)	M (moderate solubility if the threshold concentration is 31.3 μM to 250 μM)	M (moderate solubility if the threshold concentration is 31.3 μM to 250 μM)	M (moderate solubility if the threshold concentration is 31.3 μM to 250 μM)
